Measurements taken from patent EP3868759A1, “2,3,5-SUBSTITUTED PYRROLO[2,3-B]PYRIDINES AS ERBB MODULATORS USEFUL FOR TREATING CANCER” (PearlRiver Bio GmbH, priority 2020, dated 2021).

Assays:
[1] = target: EGFR (del746-750) (Homo sapiens, UniProt P00533, DEL746-750); test: Lance assay, EGFR (del746-750); settings: biochemical Lance assay
[2] = system: EGFR vIII Ba/F3; test: CellTiter-Glo cell viability, EGFR vIII Ba/F3; assay type: cell-based; settings: Mus musculus, BaF3, 72 h, read-out: EGFR vIII Ba/F3 CTG IC50 /
Procedure: (§1) The CellTiter-Glo Luminescent Cell Viability Assay (Promega) is a homogeneous method of determining the number of viable cells in culture. It is based on quantification of ATP, indicating the presence of metabolically active cells. Cells are seeded on day 1 at cell numbers that assure assay linearity and optimal signal intensity. After incubation for 24h in humidified chambers at 37°C and 5% CO2, compounds in DMSO are added at different concentrations. Cells are further incubated for 72 h at 37°C and 5% CO2. Cells treated with the compound vehicle DMSO are used as positive controls and cells treated with 10 µM Staurosporine serve as negative controls. At day 5 the CellTiter Glo Reagent is prepared according to the instructions of the kit (Promega Inc.): Reagent is mixed 1:1 with cell culture medium. Thereon, mixture and assay plates are equilibrated at room temperature for 20 min. Equal volumes of the reagent-medium-mixture is added to the volume of culture medium present in each well. The plates are mixed at ∼200 rpm for 2 minutes on an orbital shaker. The microplates are then incubated at room temperature for 10 minutes for stabilization of the luminescent signal. Following incubation the luminescence is recorded on a Victor microplate reader (Perkin Elmer) using a 200 ms integration time. The data is then analyzed with Excel using the XLFIT Plugin (dose response Fit 205) for IC50-determination. As quality control the Z'-factor is calculated from 16 positive and negative control values. Only assay results showing a Z'-factor ≥ 0.5 are used for further analysis.

[3] = system: EGFR L858R T790M Ba/F3; test: CellTiter-Glo cell viability, EGFR L858R T790M Ba/F3; assay type: cell-based; settings: Mus musculus, BaF3, 72 h, read-out: EGFR L858R T790M Ba/F3 CTG IC50 /
Procedure: as §1

[4] = target: EGFR L858R (Homo sapiens, UniProt P00533, L858R); test: Lance assay, EGFR L858R; settings: biochemical Lance assay
Chain of EGFR L858R (P00533 25-1210 L858R): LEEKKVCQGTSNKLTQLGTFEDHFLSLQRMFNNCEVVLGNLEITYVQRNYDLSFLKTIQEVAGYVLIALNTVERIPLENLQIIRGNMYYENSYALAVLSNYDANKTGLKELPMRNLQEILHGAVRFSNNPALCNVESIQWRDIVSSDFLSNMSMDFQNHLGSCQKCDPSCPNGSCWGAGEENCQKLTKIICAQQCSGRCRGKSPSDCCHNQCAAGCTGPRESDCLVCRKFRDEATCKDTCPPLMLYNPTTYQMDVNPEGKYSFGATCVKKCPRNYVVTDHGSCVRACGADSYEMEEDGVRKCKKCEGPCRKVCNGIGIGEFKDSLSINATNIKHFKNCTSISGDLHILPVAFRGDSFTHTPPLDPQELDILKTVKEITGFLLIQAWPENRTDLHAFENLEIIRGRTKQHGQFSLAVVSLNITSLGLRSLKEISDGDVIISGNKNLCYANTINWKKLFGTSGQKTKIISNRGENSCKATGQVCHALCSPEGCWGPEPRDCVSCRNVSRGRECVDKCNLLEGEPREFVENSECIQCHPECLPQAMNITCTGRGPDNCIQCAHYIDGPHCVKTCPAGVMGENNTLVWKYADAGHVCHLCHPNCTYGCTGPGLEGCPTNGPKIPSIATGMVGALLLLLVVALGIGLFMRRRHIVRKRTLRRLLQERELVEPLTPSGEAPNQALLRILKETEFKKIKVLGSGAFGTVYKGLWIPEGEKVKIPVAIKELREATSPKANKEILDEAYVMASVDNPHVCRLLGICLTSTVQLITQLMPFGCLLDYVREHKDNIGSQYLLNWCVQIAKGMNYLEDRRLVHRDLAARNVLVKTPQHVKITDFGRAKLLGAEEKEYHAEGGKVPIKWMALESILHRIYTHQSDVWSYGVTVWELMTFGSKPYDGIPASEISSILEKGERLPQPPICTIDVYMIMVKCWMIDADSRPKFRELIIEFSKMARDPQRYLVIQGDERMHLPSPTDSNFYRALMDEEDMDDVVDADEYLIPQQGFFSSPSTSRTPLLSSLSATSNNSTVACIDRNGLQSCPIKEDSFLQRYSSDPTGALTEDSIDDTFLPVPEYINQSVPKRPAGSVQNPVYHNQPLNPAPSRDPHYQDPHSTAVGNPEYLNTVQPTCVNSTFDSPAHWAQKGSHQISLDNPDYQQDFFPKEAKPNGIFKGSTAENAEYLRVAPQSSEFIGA

[5] = system: EGFR Exon 20 InsNPH Ba/F3; test: CellTiter-Glo cell viability, EGFR Exon 20 InsNPH Ba/F3; assay type: cell-based; settings: Mus musculus, BaF3, 72 h, read-out: EGFR Exon 20 InsNPH Ba/F3 CTG IC50
Procedure: as §1

[6] = system: Cuto-17; test: CellTiter-Glo cell viability, Cuto-17; assay type: cell-based; settings: CUTO17, 72 h, read-out: Cuto-17 CTG IC50
Procedure: as §1

[7] = target: EGFR wt (Homo sapiens, UniProt P00533); test: Lance assay, EGFR wt; settings: biochemical Lance assay
Chain of EGFR wt (P00533 25-1210): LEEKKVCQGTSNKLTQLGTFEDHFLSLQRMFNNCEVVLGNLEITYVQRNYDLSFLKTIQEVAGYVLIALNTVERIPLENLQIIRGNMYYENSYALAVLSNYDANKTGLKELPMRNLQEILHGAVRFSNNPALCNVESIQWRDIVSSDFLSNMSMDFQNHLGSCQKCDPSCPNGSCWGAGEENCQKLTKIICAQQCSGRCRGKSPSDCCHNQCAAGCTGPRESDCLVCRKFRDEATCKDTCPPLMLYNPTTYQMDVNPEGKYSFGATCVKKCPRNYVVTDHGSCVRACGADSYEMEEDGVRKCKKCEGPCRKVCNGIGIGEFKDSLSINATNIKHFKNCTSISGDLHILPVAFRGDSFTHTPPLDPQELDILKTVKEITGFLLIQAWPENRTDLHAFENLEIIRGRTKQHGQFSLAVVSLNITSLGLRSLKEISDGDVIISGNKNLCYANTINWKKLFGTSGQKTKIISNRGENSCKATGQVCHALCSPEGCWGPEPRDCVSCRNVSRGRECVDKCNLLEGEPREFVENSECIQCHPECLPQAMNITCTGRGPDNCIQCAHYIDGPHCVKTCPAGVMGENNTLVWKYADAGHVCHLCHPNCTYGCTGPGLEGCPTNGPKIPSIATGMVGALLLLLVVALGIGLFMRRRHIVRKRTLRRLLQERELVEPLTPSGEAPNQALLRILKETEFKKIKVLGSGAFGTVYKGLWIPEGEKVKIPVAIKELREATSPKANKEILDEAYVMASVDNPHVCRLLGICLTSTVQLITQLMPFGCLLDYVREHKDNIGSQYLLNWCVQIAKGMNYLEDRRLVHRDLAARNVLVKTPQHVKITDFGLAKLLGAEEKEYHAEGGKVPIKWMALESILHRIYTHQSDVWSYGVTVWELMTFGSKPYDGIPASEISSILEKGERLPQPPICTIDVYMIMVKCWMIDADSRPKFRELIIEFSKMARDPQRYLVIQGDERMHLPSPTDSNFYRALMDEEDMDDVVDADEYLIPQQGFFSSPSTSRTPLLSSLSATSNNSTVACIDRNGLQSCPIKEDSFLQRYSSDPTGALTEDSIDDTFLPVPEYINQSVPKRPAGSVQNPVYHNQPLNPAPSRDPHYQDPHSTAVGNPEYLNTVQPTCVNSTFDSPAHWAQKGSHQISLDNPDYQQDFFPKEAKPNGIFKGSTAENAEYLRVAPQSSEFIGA

[8] = target: T1, HER2 INS YVMA (Homo sapiens, UniProt P04626, INS775YVMA); test: Lance Kinase Activity Assay, Her2 Exon 20 InsYVMA; settings: biochemical Lance assay
T1 construct: purchased DPF
T1 sequence (P04626 with tags, fused parts or gaps INS775YVMA): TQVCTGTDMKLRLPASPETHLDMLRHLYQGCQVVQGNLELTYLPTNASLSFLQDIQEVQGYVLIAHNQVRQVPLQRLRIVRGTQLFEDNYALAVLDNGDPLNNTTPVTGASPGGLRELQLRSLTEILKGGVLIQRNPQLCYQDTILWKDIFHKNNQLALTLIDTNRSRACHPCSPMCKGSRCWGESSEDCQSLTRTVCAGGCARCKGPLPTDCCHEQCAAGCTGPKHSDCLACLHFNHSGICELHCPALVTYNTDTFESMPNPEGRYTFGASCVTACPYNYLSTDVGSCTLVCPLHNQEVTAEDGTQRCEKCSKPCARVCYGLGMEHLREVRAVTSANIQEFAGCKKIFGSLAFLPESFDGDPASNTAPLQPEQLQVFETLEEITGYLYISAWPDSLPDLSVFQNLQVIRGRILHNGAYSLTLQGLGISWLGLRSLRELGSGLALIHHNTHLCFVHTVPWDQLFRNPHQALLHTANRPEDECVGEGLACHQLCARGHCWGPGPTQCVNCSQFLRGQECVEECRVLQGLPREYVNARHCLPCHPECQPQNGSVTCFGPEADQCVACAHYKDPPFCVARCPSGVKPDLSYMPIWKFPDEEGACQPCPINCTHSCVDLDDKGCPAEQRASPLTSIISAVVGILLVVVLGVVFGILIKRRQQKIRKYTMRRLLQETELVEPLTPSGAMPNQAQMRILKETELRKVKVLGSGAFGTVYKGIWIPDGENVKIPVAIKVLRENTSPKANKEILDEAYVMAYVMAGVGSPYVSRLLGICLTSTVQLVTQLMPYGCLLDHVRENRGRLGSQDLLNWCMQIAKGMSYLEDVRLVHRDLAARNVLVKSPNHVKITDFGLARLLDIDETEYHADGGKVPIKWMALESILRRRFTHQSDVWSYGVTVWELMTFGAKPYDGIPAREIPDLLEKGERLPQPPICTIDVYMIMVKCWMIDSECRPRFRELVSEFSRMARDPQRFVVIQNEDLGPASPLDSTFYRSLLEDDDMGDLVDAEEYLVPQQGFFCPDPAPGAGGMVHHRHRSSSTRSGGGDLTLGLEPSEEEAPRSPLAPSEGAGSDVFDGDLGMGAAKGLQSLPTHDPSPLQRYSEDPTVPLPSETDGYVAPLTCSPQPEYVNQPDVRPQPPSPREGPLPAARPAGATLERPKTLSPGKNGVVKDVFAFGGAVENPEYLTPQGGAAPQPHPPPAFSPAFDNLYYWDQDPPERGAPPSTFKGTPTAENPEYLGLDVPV
Procedure: This protocol describes how the Lance Kinase Activity Assay was performed to determine IC50 values of compounds of general formula (I) against HER2 INS YVMA. The principle behind this enzymatic assay is based upon the phosphorylation of the Ulight-peptide substrate. It is detected by using a specific EU-labeled anti-phospho peptide antibody. The binding of the Eu labeled anti-phospho peptide antibody to the phosphorylated ULight labeled peptide gives rise to a FRET-signal. Binding of an inhibitor to the kinase prevents phosphorylation of the Ulight-substrate, resulting in a loss of FRET. In table 2 is summarized the relevant information for the LANCE assay. Table 2: Reagents, stock concentrations and final assay concentrations for Her2 INS YVMA.
The compounds of general formula (I) summarized in Table 3 were serial diluted from a 10 mM DMSO stock solution 1:3 over 8 steps in a total volume of 20 µl. For every sample, 8 µl of kinase-substrate mix was transferred into a suitable assay plate (e.g. Corning #3673). Compound was added via pintool transfer (10nl/well) using a Biomek FX robot (BeckmanCoulter). Reaction was started by addition of 2µl ATP working solution and mixed using variomag teleshaker (Thermo Fischer Scientific). After 1 h incubation at room temperature the reaction was stopped with 10µl detection mix containing the Eu-labeled phosphospecific antibody and 10mM EDTA. After a second incubation period of 1 h at room temperature the FRET signal was measured at 340 nm excitation, 665 nm and 615 nm emission (for the ULight-substrate and Eu-AB, respectively) with an Envision spectrophotometer (Perkin Elmer, Waltham, MA, USA) with 50 µs delay and 300 µs integration time. IC50 values were determined from the sigmoidal dose response curves with the software Quattro Workflow (Quattro GmbH, Munich, Germany).

[9] = system: Her2 Exon 20 InsYVMA Ba/F3; test: CellTiter-Glo cell viability, Her2 Exon 20 InsYVMA Ba/F3; assay type: cell-based; settings: Mus musculus, BaF3, 72 h, read-out: Her2 Exon 20 InsYVMA Ba/F3 CTG IC50
Procedure: as §1

[10] = system: H1975; test: CellTiter-Glo cell viability, H1975; assay type: cell-based; settings: Homo sapiens, NCI-H1975, 72 h, read-out: H1975 CTG IC50
Procedure: as §1

[11] = target: EGFR T790M L858R (Homo sapiens, UniProt P00533, L858R/T790M); test: Lance assay, EGFR T790M L858R; settings: biochemical Lance assay
[12] = system: EGFR L858R Ba/F3; test: CellTiter-Glo cell viability, EGFR L858R Ba/F3; assay type: cell-based; settings: Mus musculus, BaF3, 72 h, read-out: EGFR L858R Ba/F3 CTG IC50 /
Procedure: as §1

[13] = system: A431; test: CellTiter-Glo cell viability, A431; assay type: cell-based; settings: Homo sapiens, A-431, 72 h, read-out: A431 CTG IC50
Procedure: as §1

Chain of EGFR (del746-750) (P00533 with tags, fused parts or gaps DEL746-750): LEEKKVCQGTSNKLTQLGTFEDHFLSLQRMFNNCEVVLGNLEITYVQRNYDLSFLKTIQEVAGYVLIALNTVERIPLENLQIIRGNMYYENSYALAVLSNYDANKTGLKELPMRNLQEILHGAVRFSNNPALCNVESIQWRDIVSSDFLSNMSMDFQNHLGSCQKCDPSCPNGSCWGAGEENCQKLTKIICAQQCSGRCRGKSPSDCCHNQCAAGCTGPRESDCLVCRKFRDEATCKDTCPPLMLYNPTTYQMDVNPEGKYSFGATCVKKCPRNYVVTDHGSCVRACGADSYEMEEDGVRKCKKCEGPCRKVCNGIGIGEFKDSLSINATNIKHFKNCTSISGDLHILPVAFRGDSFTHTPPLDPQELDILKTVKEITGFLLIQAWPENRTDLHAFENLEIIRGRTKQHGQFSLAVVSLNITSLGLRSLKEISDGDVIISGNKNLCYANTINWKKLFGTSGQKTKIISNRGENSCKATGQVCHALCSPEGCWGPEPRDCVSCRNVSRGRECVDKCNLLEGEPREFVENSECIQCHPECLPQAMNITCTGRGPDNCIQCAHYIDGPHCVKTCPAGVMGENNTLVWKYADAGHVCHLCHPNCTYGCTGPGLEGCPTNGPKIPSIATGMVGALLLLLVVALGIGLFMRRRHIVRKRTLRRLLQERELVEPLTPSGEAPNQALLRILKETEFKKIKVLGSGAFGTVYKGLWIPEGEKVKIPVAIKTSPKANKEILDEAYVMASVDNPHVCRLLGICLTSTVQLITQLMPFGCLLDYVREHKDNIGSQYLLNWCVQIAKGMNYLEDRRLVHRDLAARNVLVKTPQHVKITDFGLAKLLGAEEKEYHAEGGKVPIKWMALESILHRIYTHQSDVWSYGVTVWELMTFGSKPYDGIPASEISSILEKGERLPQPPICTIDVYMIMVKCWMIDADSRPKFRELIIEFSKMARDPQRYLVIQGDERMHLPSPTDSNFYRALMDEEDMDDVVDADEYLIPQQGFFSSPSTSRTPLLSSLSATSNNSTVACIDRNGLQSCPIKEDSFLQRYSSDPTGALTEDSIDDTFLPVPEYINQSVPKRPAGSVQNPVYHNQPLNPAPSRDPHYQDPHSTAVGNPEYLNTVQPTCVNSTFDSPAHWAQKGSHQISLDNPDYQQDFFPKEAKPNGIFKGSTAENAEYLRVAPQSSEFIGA

SMILES | IC50 [1] | IC50 [2] | IC50 [3] | IC50 [4] | IC50 [5] | IC50 [7] | IC50 [8] | IC50 [9] | IC50 [10] | IC50 [11] | IC50 [12] | IC50 [13] | IC50 [6]
C=CC(=O)Nc1cc(-c2c(-c3cnn(CCN(C)C)c3)[nH]c3ncc(C(=O)OC(C)C)c(C)c23)ccc1C [Example 15, isopropyl 3-(3-acrylamido-4-methylphenyl)-2-(1-(2-(dimethylamino)ethyl)-1 H-pyrazol-4-yl)-4-methyl-1 H-pyrrolo[2,3-b]pyridine-5-carboxylate] | ≤ 50 nM | 50 to 100 nM | ≤ 50 nM | ≤ 50 nM | 50 to 100 nM | ≤ 50 nM | ≤ 50 nM | 100 to 500 nM | 100 to 500 nM | ≤ 50 nM | ≤ 50 nM | 1000 to 10000 nM | 100 to 500 nM
C=CC(=O)Nc1cc(-c2c(-c3cnn(CC)c3)[nH]c3ncc(C(=O)OC(C)C)cc23)cc(F)c1C [Example 5, isopropyl 3-(3-acrylamido-5-fluoro-4-methylphenyl)-2-(1-ethyl-1 H-pyrazol-4-yl)-1H-pyrrolo[2,3-b]pyridine-5-carboxylate] | ≤ 50 nM | 100 to 500 nM | ≤ 50 nM | ≤ 50 nM | 50 to 100 nM | ≤ 50 nM | 50 to 100 nM | 50 to 100 nM | 500 to 1000 nM | ≤ 50 nM | ≤ 50 nM | 1000 to 10000 nM | 100 to 500 nM
C=CC(=O)Nc1cc(-c2c(-c3cnn(CC(C)O)c3)[nH]c3ncc(C(=O)OC(C)C)c(C)c23)ccc1C (stereo not shown) [Example 24, isopropyl 3-(3-acrylamido-4-methylphenyl)-2-(1-(2-hydroxypropyl)-1H-pyrazol-4-yl)-4-methyl-1 H-pyrrolo[2,3-b]pyridine-5-carboxylate] | ≤ 50 nM | 50 to 100 nM | 50 to 100 nM | ≤ 50 nM | 100 to 500 nM | ≤ 50 nM | 100 to 500 nM | 500 to 1000 nM | – | 50 to 100 nM | ≤ 50 nM | 1000 to 10000 nM | –
C=CC(=O)Nc1cc(-c2c(-c3cnn(C)c3)[nH]c3ncc(-c4cnn(C)c4C)cc23)ccc1C [Example 29, N-(5-(5-(1,5-dimethyl-1H-pyrazol-4-yl)-2-(1-methyl-1 H-pyrazol-4-yl)-1 H-pyrrolo[2,3-b]pyridin-3-yl)-2-methylphenyl)acrylamide] | ≤ 50 nM | ≤ 50 nM | ≤ 50 nM | ≤ 50 nM | ≤ 50 nM | ≤ 50 nM | ≤ 50 nM | 100 to 500 nM | – | ≤ 50 nM | ≤ 50 nM | 500 to 1000 nM | –

Now from value to compound, other results behind:

IC50 [1] | IC50 [2] | IC50 [3] | IC50 [4] | IC50 [5] | IC50 [7] | IC50 [8] | IC50 [9] | IC50 [10] | IC50 [11] | IC50 [12] | IC50 [13] | SMILES | IC50 [6]
≤ 50 nM | ≤ 50 nM | ≤ 50 nM | ≤ 50 nM | 50 to 100 nM | ≤ 50 nM | 50 to 100 nM | 100 to 500 nM | – | ≤ 50 nM | ≤ 50 nM | 1000 to 10000 nM | C=CC(=O)Nc1cc(-c2c(-c3cnn(C)c3)[nH]c3ncc(-c4cnn(C5CC5)c4)cc23)ccc1C [Example 31, N-(5-(5-(1-cyclopropyl-1H-pyrazol-4-yl)-2-(1-methyl-1 H-pyrazol-4-yl)-1 H-pyrrolo[2,3-b]pyridin-3-yl)-2-methylphenyl)acrylamide] | –
≤ 50 nM | 1000 to 10000 nM | 1000 to 10000 nM | ≤ 50 nM | 1000 to 10000 nM | ≤ 50 nM | 500 to 1000 nM | > 10000 nM | – | 100 to 500 nM | > 10000 nM | 1000 to 10000 nM | C=CC(=O)Nc1cc(-c2c(-c3cnn(C)c3)[nH]c3ncc(-c4cnn(CCN(C)C)c4)cc23)ccc1C [Example 34, N-(5-(5-(1-(2-(dimethylamino)ethyl)-1H-pyrazol-4-yl)-2-(1-methyl-1H-pyrazol-4-yl)-1H-pyrrolo[2,3-b]pyridin-3-yl)-2-methylphenyl)acrylamide] | –
